Source: article PMC6633970, “Acetylcholinesterases from Leaf-Cutting ant Atta sexdens: Purification, Characterization, and Capillary Reactors for On-Flow Assays” (Enzyme Research, 2019)

Experiments:
AsAChE-A [1] = tested on: T1, AsAChE-A; assay: Ellman assay, […] nm, Lineweaver-Burk; assay type: biochemical, Atta sexdens; conditions: free enzyme; Tris-HCl, optimal pH (9.5) and temperature (30 or 50 °C, which not told); iodide salt; partially purified native enzyme
T1 construct: gene ace 2; native, soluble, from worker heads

AsAChE-B = target: T2, AsAChE-B (Atta sexdens, UniProt A0A2R2V0F5); assay: on-flow LC-MS/MS of choline with immobilized enzyme capillary reactor; assay type: biochemical; conditions: read-out: % inhibition at 0.1 mM
T2 construct: native, soluble, from worker heads

AsAChE-A [2] = tested on: T1, AsAChE-A; assay: LC-MS/MS quantification of choline, HILIC; assay type: biochemical, Atta sexdens; conditions: free enzyme; 15 mM ammonium acetate, pH 5.0 as printed; 5 min
Source text: LC-MS/MS quantification of choline, HILIC on AsAChE-A

Q: With `CC(=O)SCC[N+](C)(C)C` [ATCh, acetylthiocholine] as the compound, how does the Km (AsAChE-A [1]) read?
A: 39.1 ± 2.3 µM

Q: With `Nc1c2c(nc3ccccc13)CCCC2` [tacrine] as the compound, how does the inhibition at 100 µM (AsAChE-B) read?
A: 16%

Q: Which Km (AsAChE-A [2]) does the source give for `CC(=O)OCC[N+](C)(C)C` [ACh, acetylcholine] here?
A: 40.7 ± 12.5 µM
